Legend:
Primary striatal cells = assay: Striatum-derived neurosphere proliferation in response to proliferative and regulatory factors (Example 43, Paradigm 1); format: cell-based, mouse; settings: for Numbers of neurospheres generated (#): decrease (−) or increase (+) per well compared with absence of the REGULATORY FACTOR: 10-12 days; for numbers of neurospheres generated: in all of the proliferative factors or combinations tested
Method: Paradigm 1: Primary striatal cells prepared as outlined in Example 1 were suspended in Complete Medium, without growth factors, plated in 96 well plates (Nunclon) and incubated as described in Example 4. Following a one hour incubation period, a specific proliferative factor, or a combination of proliferative factors including EGF, or bFGF (recombinant human bFGF: R & D Systems), or a combination of EGF and bFGF, or EGF plus FGF plus heparan sulfate (Sigma), or bFGF plus heparan sulfate made up in Complete Medium at a concentration of 20 ng/ml for each of the growth factors and 2 μg/ml for heparan sulfate), was added to each well of the plate.
Retinoic acid (Sigma) was added at a concentration of 10^−6 M. 10 μl of one of these regulatory factor-containing solutions was added to each proliferative factor-containing well of the 96 well plates. Control wells, containing only proliferative factors, were also prepared. […]
IL-2, IL-6, IL-8, MIP-1∂, MIP-1β, MIP-2, TNFα and EGF additions were repeated every second day, CNTF which was added each day and retinoic acid, NGF and PDGF were added only once, at the beginning of the experiment. The cells were incubated for a period of 10-12 days. The number of neurospheres in each well was counted and the resulting counts tabulated using Cricket Graph III. Other relevant information regarding sphere size and shape were also noted.

[1] = test system: constitutively proliferating subependymal cells; assay: 3H-thymidine kill of constitutively proliferating subependymal cells, BrdU count (Example 24); format: in vivo, mouse; set-up: concentration or dose not given beside the values
Method: Adult male CD1 mice received a series of intraperitoneal injections of 3H-thymidine (0.8 ml per injection, specific activity 45-55 mCi/mmole, ICN Biomedical) on day 0 (3 injections, 1 every 4 hours) in order to kill the constitutively proliferating subependymal cells. On day 0.5, 1, 2, 4, 6, 8 or 12, animals received 2 BrdU injections 1 hour apart (see Example 25) and were sacrificed 0.5 hour after the last injection. In a second group of animals, 3H-thymidine injections were given on day 0 (3 injections, 1 every 4 hours), followed by an identical series of injections on day 2 or 4. Animals were allowed to survive for 8 days following the second series of injections ([…] and 12 respectively) at which time they received 2 injections of BrdU and were sacrificed 0.5 hours later. Animals were sacrificed and the brains were removed and processed as described in Example 25.

[2] = test system: relatively quiescent neural stem cells in subependyma; assay: 3H-thymidine kill, number of neurospheres formed in vitro (Example 26); format: in vivo, mouse
Method: As detailed in Example 26 below, an experiment was performed to determine whether the in vitro stem cell is derived from the constitutively proliferating population or from the quiescent population. Animals were treated in one of the following ways: […] Adult male CD1 mice were divided into 4 groups. Group A animals received a series of 3H-thymidine injections on day 0 (3 injections, 1 every 4 hours). Animals in groups B and C received a series of 3H-thymidine injections on day 0 followed by a second series of injections on day 2 or 4. Group D animals received injections of physiological saline instead of 3H-thymidine over the same time course as group A. Animals from all groups were sacrificed by cervical dislocation 16-20 hours following the last series of injections. Brains were removed and neural tissue obtained from the subependyma surrounding the lateral ventricles in the forebrain was dissociated and the neural cells cultured as described in Example 5. At 6 and 8 days in vitro, the total number of spheres was counted in each of the 35 mm wells.

[3] = test system: EGF-generated neurospheres; assay: Effect of growth factors on neurosphere differentiation, immunocytochemistry (Example 8); format: cell-based, mouse
Method: Six to 8 days after the first passage, the neurospheres were removed and centrifuged at 400 r.p.m. The EGF-containing supernatant was removed and the pellet suspended in EGF-free complete medium containing 1% FBS. Neurospheres (approximately 0.5-1.0×10^6 cells/well) were plated on poly-L-ornithine-coated (15 μg/ml) glass coverslips in 24 well Nuclon (1.0 ml/well) culture dishes. After 24 hours in culture, the coverslips were transferred to 12 well (Costar) culture dishes containing complete medium containing 0.5% FBS. The medium was changed every 4-7 days. This differentiation procedure is referred to as the “Rapid Differentiation Paradigm” or RDP.
Six to 8 days after the first passage, the neurospheres were removed and centrifuged at 400 r.p.m. The EGF-containing media was removed and the pellet was suspended in EGF-free complete medium containing 1% FBS. The neurospheres were mechanically dissociated into single cells with a fire-polished Pasteur pipette and centrifuged at 800 r.p.m. for 5 minutes. Between 0.5×10^6 and 1.0×10^6 cells were plated on poly-L-ornithine-coated (15 μg/ml) glass coverslips in 24 well Nuclon (1.0 ml/well) culture dishes. The EGF-free culture medium containing 1% FBS was changed every 4-7 days.
Neurospheres were washed free of EGF by serial transfers through changes of EGF-free medium. A single neurosphere was plated onto poly-L-ornithine-coated (15 μg/ml) glass coverslips in a 24-well plate. The culture medium used was complete medium with or without I % FBS. The medium was changed every 4-7 days.
Neurospheres were washed free of EGF by serial transfers through changes of EGF-free medium. A single neurosphere was mechanically dissociated in a 0.5 ml Eppendorf centrifuge tube and all the cells were plated onto a 35 mm culture dish. Complete medium was used with or without 1% FBS.
The effects of CNTF, FGF-2, BDNF, and retinoic acid on neurosphere differentiation were tested using the differentiation paradigms set forth in Example 7.
The effect of CNTF was assayed in paradigms 1 and 3. For both paradigms, CNTF was added either at the beginning of the experiment at a concentration of 10 ng/ml or daily at a concentration of 1 ng/ml.
Three different antibodies directed against 04, galactocerebroside (GalC) and MBP were used to study the effect of CNTF on the oligodendrocytes of paradigm 1. CNTF had no effect on the number of 04(+) cells, but there was an increase in the number of GalC(+) and MBP(+) cells compared with the control. Thus it appears that CNTF plays a role in the maturation of oligodendrocytes.
The effect of FGF-2 was tested using paradigms 2 and 4. In paradigm 2, 20 ng/ml of FGF-2 was added at the beginning of the experiment and cells were stained 7 days later. FGF-2 increased the number of GFAP(+) cells and the number of NSE(+) cells.
In paradigm 4, 20 ng/ml of FGF-2 was added at the beginning of the experiment and assayed 7-10 days later. […] It induced two different cell types to divide, neuroblasts and bipotential progenitor cells. The neuroblast produced, on average, 6 neurons while the bipotential cell produced approximately 6 neurons and a number of astrocytes.

[4] = PROLIFERATIVE FACTOR EGF 20 ng/ml
[5] = PROLIFERATIVE FACTOR bFGF 20 ng/ml
[6] = PROLIFERATIVE FACTORS EGF + bFGF + Heparan
[7] = PROLIFERATIVE FACTORS EGF + bFGF
[8] = PROLIFERATIVE FACTORS bFGF + Heparan
[9] = paradigm 1, CNTF 10 ng/ml at beginning or 1 ng/ml daily

Molecule	Numbers of neurospheres generated (#): decrease (−) or increase (+) per well compared with absence of the REGULATORY FACTOR (Primary striatal cells; [4])	Numbers of neurospheres generated (#): decrease (−) or increase (+) per well compared with absence of the REGULATORY FACTOR (Primary striatal cells; [5])	Numbers of neurospheres generated (#): decrease (−) or increase (+) per well compared with absence of the REGULATORY FACTOR (Primary striatal cells; [6])	Numbers of neurospheres generated (#): decrease (−) or increase (+) per well compared with absence of the REGULATORY FACTOR (Primary striatal cells; [7])	Numbers of neurospheres generated (#): decrease (−) or increase (+) per well compared with absence of the REGULATORY FACTOR (Primary striatal cells; [8])	numbers of neurospheres generated (Primary striatal cells)	Size of neurospheres compared to PROLIFERATIVE FACTORS alone (Primary striatal cells; PROLIFERATIVE FACTOR bFGF)	other results
PDGF	−1.5%	−4%	−27%	−26%	−10%	significantly reduced		
TNFα	−17%	−17%	−37%	−41%	−21%	significantly reduced		
Cc1cn([C@H]2C[C@H](O)[C@@H](CO)O2)c(=O)[nH]c1=O [3H-thymidine]								proliferating subependymal population relative to controls ([1]; one kill on day 0, 8 days): 85%; proliferating subependymal population relative to controls ([1]; one kill on day 0, 8 days, listed as radioactive thymidine): back to control levels; proliferating subependymal population relative to controls ([1]; one kill on day 0, day 1 post-kill): 10%; proliferating subependymal population relative to controls ([1]; second kill on day 2, 8 days later): 45%; proliferating subependymal population relative to controls ([1]; second kill on day 2, 31 days after the second kill): 63%; proliferating subependymal population relative to controls ([1]; second kill on day 4, 8 days later): return to control values; proliferating subependymal population relative to controls ([1]; second kill on day 4, 8 days later, listed as radioactive thymidine): 85%; Number of Neurospheres produced in vitro relative to control ([2]; high doses on day 0): the same number of spheres; Number of Neurospheres produced in vitro relative to control ([2]; high doses on day 0, listed as radioactive thymidine): 100%; Number of Neurospheres produced in vitro relative to control ([2]; high doses on day 0 and day 2): 45%; Number of Neurospheres produced in vitro relative to control ([2]; high doses on day 0 and day 2, listed as radioactive thymidine): 45%; Number of Neurospheres produced in vitro relative to control ([2]; high doses on day 0 and day 4): not significantly different from control values; Number of Neurospheres produced in vitro relative to control ([2]; high doses on day 0 and day 4, listed as radioactive thymidine): 85%
heparan sulfate [reference compound]	0%	0%		0%			++	increase in size of the neurospheres formed in response to bFGF (Primary striatal cells; added to bFGF): about 400%; size of neurospheres relative to those which occur in response to EGF (Primary striatal cells; heparan sulfate 2 μg/ml added to bFGF generated spheres): approximately 70%
CC1=C(/C=C/C(C)=C/C=C/C(C)=C/C(=O)O)C(C)(C)CCC1 [Retinoic Acid, retinoic acid, reference compound]	−8%	−61%	−45%	−31%	−65%		−	
CNTF: ciliary neurotrophic factor (protein, UniProt P26441 1-200, looked up) Ciliary neurotrophic factor: MAFTEHSPLTPHRRDLCSRSIWLARKIRSDLTALTESYVKHQGLNKNINLDSADGMPVASTDQWSELTEAERLQENLQAYRTFHVLLARLLEDQQVHFTPTEGDFHQAIHTLLLQVAAFAYQIEELMILLEYKIPRNEADGMPINVGDGGLFEKKLWGLKVLQELSQWTVRSIHDLRFISSHQTGIPARGSHYIANNKKM	−23%	−77%	−84%	−81%	−81%	significantly reduced		Size of neurospheres compared to PROLIFERATIVE FACTORS alone (Primary striatal cells; PROLIFERATIVE FACTOR EGF): −; Size of neurospheres compared to PROLIFERATIVE FACTORS alone (Primary striatal cells; [8]): −; number of GalC(+) cells compared with control ([3]; paradigm 1): increase; number of MBP(+) cells compared with control ([3]; paradigm 1): increase; number of O4(+) cells ([3]; paradigm 1): no effect; number of NSE-immunoreactive cells [3, 9]: increased; number of tau-1-immunoreactive cells [3, 9]: increased; number of cells containing GABA and substance P ([3]; paradigm 1, preliminary testing): no increase; proliferation of flat, protoplasmic astrocytes ([3]; paradigm 1 without serum): increase; number of NSE(+) cells ([3]; paradigm 3, CNTF): increase
